# Experimental data reported in PMC12536539, “Detumescence Analgesic Plaster mitigates knee osteoarthritis via active ingredients targeting mitochondrial complex 1/AMPK/MYL3-regulated cartilage homeostasis” (Chinese Medicine, 2025).
# Target: T1, NDUFA6
# T1 construct: SPR protein; species is a guess, rat possible
# Assay: SPR, Biacore 8K, […] Langmuir kinetic fit
# Type: binding
compound,measurement,value
"O=C(/C=C/c1ccc(O)c(O)c1)O[C@@H]1C[C@](OC(=O)/C=C/c2ccc(O)c(O)c2)(C(=O)O)C[C@@H](O)[C@H]1O [1,5-dicaffeoylquinic acid]",Kd,735 nM
